Laboratory results as given in PubChem BioAssay (NCI).
Values joined by “and” are separate entries in the source; they are usually repeats but may differ in a detail not shown here. Equal values may be shown once.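 Five compound concentrations were applied to cells in 96-well plates for 48 hours; endpoints were derived by simple linear interpolation of the resulting dose-response curve. GI50: concentration for 50% inhibition of growth. TGI: concentration producing complete growth inhibition.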

What was measured:
Assay in all cases: NCI tumour cell line growth inhibition, 48 h
A498 renal = test system: A498 renal
DU-145 prostate = test system: DU-145 prostate
EKVX NSCLC = test system: EKVX NSCLC
HL-60(TB) leukemia = test system: HL-60(TB) leukemia
M14 melanoma = test system: M14 melanoma
MDA-MB-435 = test system: MDA-MB-435
PC-3 prostate = test system: PC-3 prostate
SK-MEL-28 melanoma = test system: SK-MEL-28 melanoma
SK-OV-3 ovarian = test system: SK-OV-3 ovarian
SNB-75 CNS = test system: SNB-75 CNS

SMILES	GI50 (A498 renal)	TGI (A498 renal)	GI50 (DU-145 prostate)	TGI (DU-145 prostate)	GI50 (EKVX NSCLC)	TGI (EKVX NSCLC)	GI50 (HL-60(TB) leukemia)	TGI (HL-60(TB) leukemia)	GI50 (M14 melanoma)	TGI (M14 melanoma)	GI50 (MDA-MB-435)	TGI (MDA-MB-435)	GI50 (PC-3 prostate)	TGI (PC-3 prostate) [µM]	GI50 (SK-MEL-28 melanoma)	TGI (SK-MEL-28 melanoma)	GI50 (SK-OV-3 ovarian)	TGI (SK-OV-3 ovarian)	GI50 (SNB-75 CNS)	TGI (SNB-75 CNS)
CCC1=C(c2ccc(OC)cc2)C(C)(C)Oc2c1ccc(O)c2CN1CCCC1	1.23 µM	7.95 µM	3.77 µM	> 100 µM	18.6 µM	> 100 µM	0.871 µM	3.12 µM	1.65 µM	3.39 µM	1.71 µM	4.03 µM	2.58 µM	29.3	1.7 µM	3.32 µM	8.23 µM	> 100 µM	1.66 µM	87.4 µM
COc1ccc(Br)cc1NC(=O)Nc1cccc2c1ccn2Cc1ccnc(N)c1	2.41 µM and 4.12 µM	11.6 µM and > 10 µM	7.86 µM and > 10 µM	37.9 µM and > 10 µM	7.36 µM and 9.64 µM	> 100 µM	4.69 µM and 3.6 µM	20.8 µM and > 10 µM	3.09 µM and 2.68 µM	10.5 µM and > 10 µM	5.42 µM and 5.81 µM	23.5 µM and > 10 µM	4.52 µM and 4.5 µM	> 54.8	11.5 µM and > 10 µM	24.8 µM and > 10 µM	8.38 µM and > 10 µM	26.3 µM and > 10 µM	2.19 µM and 5.1 µM	42.8 µM and > 10 µM
COc1ccc2c(c1)c(-c1nc(-c3cn(C)c4ccncc34)cs1)cn2C	6.59 µM	20.4 µM	1.78 µM	3.34 µM	1.77 µM	3.56 µM	1.96 µM	4.49 µM	1.7 µM	3.29 µM	1.59 µM	2.97 µM	1.89 µM	4.79	1.71 µM	3.15 µM	2.52 µM	5.12 µM	14.7 µM	28 µM
Cc1c(CN2CCN(C(=O)[C@H](C)O)CC2)sc2c(N3CCOCC3)nc(-c3cnc(N)nc3)nc12	0.0542 µM and 0.0283 µM	0.242 µM and 0.15 µM	0.424 µM and 0.244 µM	> 100 µM	0.121 µM and 0.21 µM	2.26 µM and 2.34 µM	0.146 µM and 0.192 µM	> 10 µM and 6.81 µM	0.326 µM and 0.0936 µM	> 9.28 µM and 1.44 µM	0.285 µM and 0.186 µM	3.16 µM and 1.38 µM	0.122 µM and 0.0753 µM	> 100	0.247 µM and 0.138 µM	5.43 µM and 0.708 µM	0.123 µM and 0.112 µM	1.13 µM and 0.573 µM	0.0317 µM and 0.0235 µM	0.67 µM and 0.255 µM
Cc1c(Cn2c(C)nc3c(C(=O)O)cc(N4CCOCC4)cc32)cccc1C(F)(F)F	0.0339 µM	0.319 µM	> 92.9 µM	> 100 µM	–	–	72.9 µM	> 100 µM	37.1 µM	> 100 µM	66 µM	> 100 µM	6.38 µM	> 100	> 100 µM	> 100 µM	77.5 µM	> 100 µM	12.3 µM	> 100 µM
Cc1ccc(OP(=O)(Oc2ccc(C)cc2)N2C=Cc3ccccc3C2C#N)cc1 (stereo not given)	–	> 100 µM	–	> 100 µM	–	> 100 µM	–	> 100 µM	–	> 100 µM	–	> 100 µM	–	> 100	–	> 100 µM	–	> 100 µM	–	> 100 µM
COc1cc(-n2ccnc2-c2ccc3ccccc3c2)cc(OC)c1OC	0.0451 µM	1.42 µM	0.175 µM	17.5 µM	0.481 µM	> 72.4 µM	0.0232 µM	> 37.6 µM	0.0376 µM	1.02 µM	–	0.124 µM	0.03 µM	> 85.8	0.688 µM	38.3 µM	0.13 µM	24.7 µM	0.123 µM	36.8 µM
CC1(C)N=C(N)N=C(N)N1c1ccc(CNC(=O)Nc2ccc(S(=O)(=O)F)c(Cl)c2)c(Cl)c1	9.5 µM	> 100 µM	0.76 µM	> 100 µM	–	–	0.377 µM	> 100 µM	1.24 µM	> 100 µM	0.183 µM	> 100 µM	0.0677 µM	> 100	4.35 µM	> 100 µM	> 45 µM	> 100 µM	3.47 µM	> 100 µM
CCOC(=O)c1[nH]c2cc(Cl)ccc2c1[C@@H](C(=O)NC(C)(C)C)N(CC)C(=O)CCCCC#Cc1cccc2c1CN(C1CCC(=O)NC1=O)C2=O (stereo not given in full)	< 0.0104 µM	0.0723 µM	3.06 µM	46.8 µM	1.39 µM	45.5 µM	< 0.01 µM	0.0959 µM	0.213 µM	17.7 µM	2.34 µM	> 31.7 µM	< 0.01 µM	9.36	2.29 µM	25.5 µM	0.694 µM	16.9 µM	< 0.01 µM	4.81 µM
COC[C@H](NC(=O)c1cnc(C)s1)C(=O)N[C@@H](COC)C(=O)N[C@@H](Cc1ccccc1)C(=O)[C@@]1(C)CO1	45.3 µM	> 100 µM	37.1 µM	> 100 µM	44.4 µM	> 100 µM	35 µM	> 100 µM	24.3 µM	> 69.8 µM	12.9 µM	40 µM	50.1 µM	> 100	27.5 µM	> 95.1 µM	> 94.9 µM	> 100 µM	22.3 µM	> 100 µM
OC1CC2CCC(C1)N2CCCN1c2ccccc2Sc2ccc(Cl)cc21 (stereo not given)	–	5.62 µM	–	9.35 µM	–	10.1 µM	–	6.37 µM	–	3.56 µM	–	3.31 µM	–	4.8	–	3.69 µM	–	11.6 µM	–	5.23 µM
NC(=O)c1cc(N2CC2)c([N+](=O)[O-])cc1[N+](=O)[O-]	–	200 µM	–	> 200 µM	> 200 µM	> 200 µM	> 200 µM	> 200 µM	> 200 µM	> 200 µM	–	> 200 µM	–	> 200	–	> 200 µM	> 200 µM	> 200 µM	> 200 µM	> 200 µM
CC(=O)O.CN1[CH-]N(Cc2ccc(C#N)cc2)c2ccccc21.[Ag+]	> 100 µM	> 100 µM	17.7 µM	32.6 µM	> 100 µM	> 100 µM	20.3 µM	45.9 µM	16.9 µM	32.7 µM	16.9 µM	32 µM	13.5 µM	28.5	16.7 µM	32.1 µM	24.4 µM	63.5 µM	20.6 µM	68.9 µM
Cc1ccc(CNc2ccc3nc(CCC4CCCCC4)[nH]c3c2)cc1	1.44 µM	4.32 µM	3.73 µM	> 100 µM	2.12 µM	6.47 µM	1.98 µM	4.62 µM	1.91 µM	3.9 µM	2.09 µM	4.85 µM	2.39 µM	8.61	–	–	2.17 µM	5.44 µM	1.75 µM	5.25 µM
O=C(O)Cc1cccc2c(=O)cc(-c3ccccc3)oc12	307 µM	250 µM and 979 µM	> 250 µM	> 1000 µM	611 µM	250 µM and > 1000 µM	142 µM	> 250 µM and 193 µM	519 µM	> 1000 µM	518 µM	> 1000 µM	> 955 µM	> 1000	533 µM	> 1000 µM	> 813 µM	250 µM and > 1000 µM	345 µM	249 µM and > 676 µM
CCC(CC)n1cnc2c(-c3cnc(N)cn3)nc(N3CC4CCC(C3)O4)nc21	0.0749 µM	0.466 µM	0.93 µM	> 100 µM	–	–	1.41 µM	> 100 µM	0.151 µM	> 100 µM	0.314 µM	4.63 µM	0.104 µM	> 100	–	–	0.142 µM	0.789 µM	0.0848 µM	1.18 µM
CCN1CCN(CCNc2nccc(-c3c(-c4ccc(F)c(O)c4)nc4occn34)n2)S1(=O)=O	5.15 µM	> 100 µM	3.75 µM	> 100 µM	6.81 µM	> 100 µM	4.16 µM	> 100 µM	4.28 µM	> 100 µM	3.03 µM	> 100 µM	2.12 µM	> 100	5.68 µM	> 100 µM	12.9 µM	> 100 µM	3.65 µM	> 100 µM
COc1ccccc1C#Cc1ccccc1C#Cc1ccc(OCCCCCCOc2ccccc2C#Cc2ccccc2C#Cc2ccccc2OC)cc1	> 100 µM	> 100 µM	> 100 µM	> 100 µM	> 100 µM	> 100 µM	> 100 µM	> 100 µM	> 100 µM	> 100 µM	> 100 µM	> 100 µM	> 100 µM	> 100	> 100 µM	> 100 µM	> 100 µM	> 100 µM	> 100 µM	> 100 µM
O=S(=O)(N=C1C(Cl)=C(Cl)C(=NS(=O)(=O)c2ccccc2)C(Cl)=C1Cl)c1ccccc1	15.9 µM	50.9 µM	18.5 µM	60.9 µM	31.5 µM	> 100 µM	16.4 µM	> 100 µM	16.5 µM	34.7 µM	20.1 µM	68.3 µM	24.3 µM	> 100	20.6 µM	78.1 µM	43.2 µM	> 100 µM	23.5 µM	> 100 µM
O=C1C2CCN(CC2)C1CN1CCOCC1 (stereo not given)	–	31.2 µM	–	20.1 µM	–	33.8 µM	–	> 100 µM	–	6.46 µM	–	> 100 µM	–	34.7	–	10.6 µM	–	31.7 µM	–	36.2 µM
CN(C)CCNc1ccc2ncn3c4ccc(O)cc4c(=O)c1c23	–	8.04 µM	–	10.8 µM	–	17.5 µM	–	13.6 µM	–	8.47 µM	–	14.7 µM	–	10.8	–	18 µM	–	17 µM	–	10.2 µM
CC1SC(c2ccccc2Cl)N(NC(=O)C(O)c2ccccc2)C1=O (stereo not given)	67.8 µM	> 100 µM	> 100 µM	> 100 µM	> 100 µM	> 100 µM	82.4 µM	> 100 µM	94.3 µM	> 100 µM	> 100 µM	> 100 µM	45.6 µM	> 100	> 100 µM	> 100 µM	–	–	> 100 µM	> 100 µM
CC(C)(C)OC(=O)C1C(=O)NC(=O)CC1CC(OCc1ccccc1)C(OCc1ccccc1)C(COCc1ccccc1)OCc1ccccc1 (stereo not given)	–	> 100 µM	–	> 100 µM	62.2 µM and 12.6 µM	> 100 µM	16.6 µM and 2.81 µM	46.5 µM and 11.1 µM	55.1 µM and 27.2 µM	> 100 µM	45.1 µM and 9.81 µM	> 100 µM and 66.1 µM	54.7 µM and 8.16 µM	> 100	> 100 µM and 18.7 µM	> 100 µM	–	–	–	> 100 µM
COc1ccc2cc(-c3cnc4nonc4n3)ccc2c1	1.15 µM	8.79 µM	24.4 µM	> 100 µM	0.83 µM	> 100 µM	0.803 µM	9.03 µM	1.91 µM	6.38 µM	1 µM	3.35 µM	2.11 µM	> 100	> 100 µM	> 100 µM	10.8 µM	> 100 µM	–	–
COc1ccc(Nc2nc(NCCNc3ccnc4cc(Cl)ccc34)nc(N3CCOCC3)n2)cc1	0.272 µM	2.19 µM	9.8 µM	21.9 µM	–	–	1.13 µM	12.7 µM	1.86 µM	3.47 µM	1.82 µM	3.49 µM	3.94 µM	19.8	1.81 µM	3.28 µM	11.7 µM	24.6 µM	2.09 µM	8.73 µM
Cc1ccc(OCC2CO2)c(Br)c1 (stereo not given)	–	> 100 µM	–	> 100 µM	–	35.8 µM	–	> 100 µM	–	95.9 µM	–	48.2 µM	–	> 100	–	85.1 µM	–	58.5 µM	–	–
COc1cc(-c2nn(-c3cccc(NC(=O)Nc4ccc(Cl)c(C(F)(F)F)c4)c3)cc2-c2ccncc2)ccc1Cl	0.837 µM	6.97 µM	1.5 µM	> 32.5 µM	–	–	1.17 µM	> 32.5 µM	1.08 µM	3.71 µM	0.683 µM	1.69 µM	0.69 µM	2.45	1.2 µM	5.01 µM	1.45 µM	13 µM	1.28 µM	10.3 µM
